Measurements: patent US10701936B2, “Herbicidal composition and method for controlling weeds” (Sumitomo Chemical Company, Limited, priority 2016, dated 2020)

Legend:
[1] = system: Echinochloa crus-galli; experiment: Herbicidal effect, foliar spray pot test in greenhouse (Example 102); assay type: in vivo; details: sprayed at 2-3 leaf stage, a week after, scale 0-100
Procedure: (§1) A plastic pot was filled with a commercially-available culture soil, and thereto inubie (common barnyardgrass; Echinochloa crus-galli) or akinoenokorogusa (giant foxtail; Setaria faberi) was seeded, and covered with the soil to about 0.5 cm, followed by growing the weeds in a greenhouse. When the weeds grew to two to three leaf stage, a spray liquid of the compound X, a spray liquid of 2,4-D choline salt, or a spray liquid of the present composition was uniformly sprayed to the whole plants so that the application rate might be a predetermined value. The spray liquid of the present composition was prepared by mixing the spray liquid of the compound X with the spray liquid of 2,4-D choline salt. The spray liquid of the compound X was prepared by mixing a predetermined amount of the formulation X with deionized water. The spray liquid of 2,4-D choline salt was prepared by dissolving 2,4-D choline salt with a 2 wt % solution of TWEEN® 20 (polyoxyethylenesorbitan fatty acid ester, manufactured by MP Biomedicals) in dimethylformamide, followed by mixing with deionized water. After applying the spray liquid, the plants were placed in a greenhouse for a week. A herbicidal effect was evaluated by classifying the effect into 101 stages from 0 (no effect) to 100 (completely dead).
(§2) The expected value of the herbicidal effect in the case of mixed use was calculated from the result of the herbicidal effect in the case of single use of each of the compounds (the value of A or B) according to the formula of Colby ((expected value)=100−(100−A)×(100−B)/100).

[2] = system: Setaria faberi; experiment: as above; assay type: in vivo; details: sprayed at 2-3 leaf stage, a week after, scale 0-100
Procedure: as §1, §2

[3] = 2,4-D choline salt 50 g/ha alone
[4] = 2,4-D choline salt 500 g/ha alone

Compound | Herbicidal effect on Echinochloa crus-galli (observed value) [1, 3] | Herbicidal effect on Echinochloa crus-galli (observed value) [1, 4] | Herbicidal effect on Setaria faberi (observed value) [2, 3] | Herbicidal effect on Setaria faberi (observed value) [2, 4] | Herbicidal effect on Echinochloa crus-galli (observed value) ([1]; Compound X 5 g/ha alone) | Herbicidal effect on Echinochloa crus-galli (observed value) ([1]; Compound X 10 g/ha alone) | Herbicidal effect on Setaria faberi (observed value) ([2]; Compound X 5 g/ha alone) | Herbicidal effect on Setaria faberi (observed value) ([2]; Compound X 10 g/ha alone)
C[N+](C)(C)CCO.O=C([O-])COc1ccc(Cl)cc1Cl [2,4-D choline salt] | 0 | 10 | 0 | 10 | – | – | – | –
CCOC(=O)COc1ncccc1Oc1cc(-n2c(=O)cc(C(F)(F)F)n(C)c2=O)c(F)cc1Cl [Compound X, ethyl [3-[2-chloro-4-fluoro-5-(1-methyl-6-trifluoromethyl-2,4-dioxo-1,2,3,4-tetrahydropyrimidin-3-yl)phenoxy]-2-pyridyloxy]acetate] | – | – | – | – | 20 | 35 | 30 | 45
